Assay results: the NIST ThermoML archive (doi:10.1016/j.fluid.2013.07.008)
± gives the expanded uncertainty stated by the source.

Assay: xn = mol fraction of the nth substance listed
Conditions: Capillary rise

## C [methane] + CC
93.15 K, x1 = 1
  surface tension liquid-gas: 16.69 ± 0.84 mN/m
133.15 K, x1 = 1
  surface tension liquid-gas: 8.78 ± 0.44 mN/m
173.15 K, x1 = 1
  surface tension liquid-gas: 2 ± 0.11 mN/m

## CC [ethane] + C
93.15 K, x2 = 0
  surface tension liquid-gas: 32.9 ± 1.6 mN/m
133.15 K, x2 = 0
  surface tension liquid-gas: 25.32 ± 1.3 mN/m
133.15 K, x2 = 0.194
  surface tension liquid-gas: 20.74 ± 1 mN/m
133.15 K, x2 = 0.414
  surface tension liquid-gas: 16.34 ± 0.82 mN/m
133.15 K, x2 = 0.527
  surface tension liquid-gas: 14.45 ± 0.72 mN/m
133.15 K, x2 = 0.821
  surface tension liquid-gas: 10.78 ± 0.54 mN/m
173.15 K, x2 = 0
  surface tension liquid-gas: 18.26 ± 0.91 mN/m
173.15 K, x2 = 0.133
  surface tension liquid-gas: 15.59 ± 0.78 mN/m
173.15 K, x2 = 0.139
  surface tension liquid-gas: 15.37 ± 0.77 mN/m
173.15 K, x2 = 0.256
  surface tension liquid-gas: 12.87 ± 0.65 mN/m
173.15 K, x2 = 0.421
  surface tension liquid-gas: 9.8 ± 0.49 mN/m
173.15 K, x2 = 0.429
  surface tension liquid-gas: 9.6 ± 0.48 mN/m
173.15 K, x2 = 0.459
  surface tension liquid-gas: 9.07 ± 0.46 mN/m
173.15 K, x2 = 0.565
  surface tension liquid-gas: 7.67 ± 0.39 mN/m
173.15 K, x2 = 0.587
  surface tension liquid-gas: 7.14 ± 0.36 mN/m
173.15 K, x2 = 0.684
  surface tension liquid-gas: 5.98 ± 0.3 mN/m
173.15 K, x2 = 0.691
  surface tension liquid-gas: 5.79 ± 0.29 mN/m
173.15 K, x2 = 0.793
  surface tension liquid-gas: 4.51 ± 0.23 mN/m
173.15 K, x2 = 0.818
  surface tension liquid-gas: 4.29 ± 0.22 mN/m
173.15 K, x2 = 0.821
  surface tension liquid-gas: 4.25 ± 0.22 mN/m
193.15 K, x2 = 0
  surface tension liquid-gas: 15.01 ± 0.75 mN/m
193.15 K, x2 = 0.134
  surface tension liquid-gas: 12.26 ± 0.62 mN/m
193.15 K, x2 = 0.16
  surface tension liquid-gas: 11.62 ± 0.58 mN/m
193.15 K, x2 = 0.284
  surface tension liquid-gas: 9.34 ± 0.47 mN/m
193.15 K, x2 = 0.287
  surface tension liquid-gas: 9.07 ± 0.46 mN/m
193.15 K, x2 = 0.395
  surface tension liquid-gas: 7.34 ± 0.37 mN/m
193.15 K, x2 = 0.501
  surface tension liquid-gas: 5.47 ± 0.28 mN/m
193.15 K, x2 = 0.672
  surface tension liquid-gas: 3.49 ± 0.18 mN/m
193.15 K, x2 = 0.685
  surface tension liquid-gas: 3.23 ± 0.17 mN/m
213.15 K, x2 = 0
  surface tension liquid-gas: 11.79 ± 0.59 mN/m
213.15 K, x2 = 0.024
  surface tension liquid-gas: 11.22 ± 0.56 mN/m
213.15 K, x2 = 0.116
  surface tension liquid-gas: 9.57 ± 0.48 mN/m
213.15 K, x2 = 0.17
  surface tension liquid-gas: 8.6 ± 0.43 mN/m
213.15 K, x2 = 0.238
  surface tension liquid-gas: 7.28 ± 0.37 mN/m
213.15 K, x2 = 0.447
  surface tension liquid-gas: 4.11 ± 0.21 mN/m
213.15 K, x2 = 0.539
  surface tension liquid-gas: 2.71 ± 0.14 mN/m
233.15 K, x2 = 0
  surface tension liquid-gas: 8.77 ± 0.44 mN/m
233.15 K, x2 = 0.075
  surface tension liquid-gas: 7.19 ± 0.36 mN/m
233.15 K, x2 = 0.143
  surface tension liquid-gas: 6.06 ± 0.31 mN/m
233.15 K, x2 = 0.153
  surface tension liquid-gas: 5.89 ± 0.3 mN/m
233.15 K, x2 = 0.214
  surface tension liquid-gas: 4.93 ± 0.25 mN/m
233.15 K, x2 = 0.228
  surface tension liquid-gas: 4.7 ± 0.24 mN/m
233.15 K, x2 = 0.292
  surface tension liquid-gas: 3.63 ± 0.19 mN/m
233.15 K, x2 = 0.297
  surface tension liquid-gas: 3.55 ± 0.18 mN/m
233.15 K, x2 = 0.362
  surface tension liquid-gas: 2.74 ± 0.14 mN/m
233.15 K, x2 = 0.369
  surface tension liquid-gas: 2.58 ± 0.14 mN/m
253.15 K, x2 = 0
  surface tension liquid-gas: 5.77 ± 0.29 mN/m
253.15 K, x2 = 0.048
  surface tension liquid-gas: 5.17 ± 0.26 mN/m
253.15 K, x2 = 0.099
  surface tension liquid-gas: 4.4 ± 0.22 mN/m
253.15 K, x2 = 0.145
  surface tension liquid-gas: 3.73 ± 0.19 mN/m
253.15 K, x2 = 0.196
  surface tension liquid-gas: 2.98 ± 0.15 mN/m
253.15 K, x2 = 0.241
  surface tension liquid-gas: 2.34 ± 0.12 mN/m
253.15 K, x2 = 0.242
  surface tension liquid-gas: 2.28 ± 0.12 mN/m
263.15 K, x2 = 0
  surface tension liquid-gas: 4.48 ± 0.23 mN/m
263.15 K, x2 = 0.048
  surface tension liquid-gas: 3.82 ± 0.2 mN/m
263.15 K, x2 = 0.098
  surface tension liquid-gas: 3.15 ± 0.16 mN/m
263.15 K, x2 = 0.142
  surface tension liquid-gas: 2.58 ± 0.13 mN/m
263.15 K, x2 = 0.185
  surface tension liquid-gas: 2.03 ± 0.11 mN/m
273.15 K, x2 = 0
  surface tension liquid-gas: 3.2 ± 0.16 mN/m
273.15 K, x2 = 0.035
  surface tension liquid-gas: 2.76 ± 0.14 mN/m
273.15 K, x2 = 0.083
  surface tension liquid-gas: 2.19 ± 0.12 mN/m
273.15 K, x2 = 0.124
  surface tension liquid-gas: 1.75 ± 0.1 mN/m
283.15 K, x2 = 0
  surface tension liquid-gas: 1.96 ± 0.11 mN/m
283.15 K, x2 = 0.017
  surface tension liquid-gas: 1.82 ± 0.1 mN/m
283.15 K, x2 = 0.045
  surface tension liquid-gas: 1.5 ± 0.08 mN/m
283.15 K, x2 = 0.065
  surface tension liquid-gas: 1.33 ± 0.08 mN/m
283.15 K, x2 = 0.067
  surface tension liquid-gas: 1.29 ± 0.07 mN/m
